Experimental findings from US9828375B2, “4-position substituted pyrazolopyrimidine derivative, and use thereof in drug preparation” (Guangxi Wuzhou Pharmaceuticals (Group) Co., Ltd., priority 2012, dated 2017) are described below.

Where two headings read alike, the source gives them in different places.

The target in assay [1] is c-KIT (Homo sapiens, UniProt P10721). The assay can be described thus: Kinase inhibition activity test, isotope labeling: c-KIT. Format: biochemical. Conditions: test compound at a concentration of 10 μM; for inhibition at 10 µM: read-out: Activity inhibition rate c-Kit (h). On the procedure: (§1) The purpose of this experiment was to test the inhibitory activity of the compound of the invention for in vitro kinase with the isotope labeling method (the γ phosphate group on ATP was labeled). In this experiment, the in vitro activity inhibition of such kinases as FLT3, VEGFR2, FLT1, FLT4, RET, c-RAF, B-RAF, c-KIT, PDGFα, PDGFβ, FGFR2, FGFR1, EphA2, EphB2, SRC, ABL, ALK and Met was tested respectively. Staurosporine was reference molecule (or referred to as positive control). The kinase inhibition activity of the test compound was expressed by half-inhibitory concentration (IC50) or the kinase activity inhibition rate of the test compound at a concentration of 10 μM. The IC50 value could be obtained by calculating the kinase activity inhibition rate of the test compound at different concentrations.
(§2) 20 mM 3-(N-morpholinyl)propanesulfonic acid (MOPS); 1 mM ethylenediaminetetraacetic acid (EDTA), 0.01% Brij 35 (Brij-35), 5% glycerol, 0.1% mercaptoethanol, 1 mg/mL bovine serum albumin (BSA), 10 mM manganous dichloride solution (MnCl2), 0.1 mg/mL glutamic acid/tyrosine (4:1) polypeptide (poly(Glu, Tyr)4:1), 50 μM EAIYAAPFAKKK (substrate of FLT3), 0.33 mg/mL myelin basic protein (substrate of VEGFR2), 250 μM KKKSPGEYVNIEFG (substrate of FLT1(h)), 500 μM GGEEEEYFELVKKKK (substrate of FLT4(h)), 250 μM KKKSPGEYVNIEFG (substrate of RET), 0.66 mg/mL myelin basic protein (substrate of C-RAF), 250 μM GGMEDIYFEFMGGKKK (substrate of c-Kit), 250 μM GGMEDIYFEFMGGKKK (substrate of PDGFα), 250 μM KKKSPGEYVNIEFG (substrate of FGFR1), […] GGEEEEYFELVKKKK (substrate of SRC), 50 μM EAIYAAPFAKKK (substrate of ABL), 250 μM KKKSPGEYVNIEFG (substrate of ALK), 250 μM KKKSPGEYVNIEFG (substrate of Met(h)), 10 mM magnesium acetate and γ-^33 P-ATP solution, stop buffer (3% phosphate buffer), washing buffer (75 mM phosphate solution), methanol, Filtermat A membrane, FLT3, VEGFR2, FLT3, VEGFR2, FLT1, FLT4, RET, c-RAF, B-RAF, c-KIT, PDGFRα, PDGFRβ, FGFR2, FGFR1, EphA2, EphB2, SRC, ABL, ALK, Met and other kinases, and the test compounds.
(§3) Buffers (8 mM MOPS with pH value of 7.0, 0.2 mM EDTA and 10 mM MnCl2), (5-10 mU) kinases to be tested (FLT3, VEGFR2, FLT1, FLT4, RET, c-RAF, B-RAF, c-KIT, PDGFRα, PDGFRβ, FGFR2, FGFR1, EphA2, EphB2, SRC, ABL, ALK and Met), substrates of kinases to be tested (refer to experimental materials), 10 mM magnesium acetate and γ-^33 P-ATP solution, and test compounds at different concentrations were added to a reaction tube orderly. […] Reaction was terminated with 5 μL 3% phosphate buffer finally, and 10 μL reaction solution was titrated to the Filtermat A membrane; solution was washed for 3 times with 75 mM phosphate solution with each time lasting 5 minutes, and then washed once with methanol. Finally, the Filtermat A membrane was dried, and scintillation counting was performed on the membrane, with scintillation count reflecting the phosphorylation degree of the substrates, so that the activity inhibition of kinase could be characterized.

In assay [2] the test system is human malignant melanoma cell line A375. In words: In vitro tumor cell proliferation inhibition (MTT): A375. Format: cell-based. An outline of the steps:
(§4)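 Cells seeded at 1-2×10^4/mL, cultured overnight, then exposed to graded compound concentrations (0.1% DMSO) for 72 h at 37° C., 5% CO2, triplicate wells. MTT added for 2-4 h, formazan dissolved in DMSO, absorbance read at 570 nm; IC50 or inhibition rate from ≥3 repeats.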

Assay [3] deals with FGFR2 (Homo sapiens, UniProt P21802). In words: Kinase inhibition activity test, isotope labeling: FGFR2. Format: biochemical. Conditions: test compound at a concentration of 10 μM; for inhibition at 10 µM: read-out: Activity inhibition rate FGFR2 (h). On the procedure: as §1, §2, §3
For assay [4], the system named is human colorectal carcinoma cell line HCT116. The assay can be described thus: In vitro tumor cell proliferation inhibition (MTT): HCT116. Format: cell-based. The gist of the method: as §4
The test system of assay [5] is human malignant melanoma cell line A875. The assay can be described thus: In vitro tumor cell proliferation inhibition (MTT): A875. Format: cell-based. An outline of the steps:
as §4

Assay [6] relates to human cervical carcinoma cell line HELA. The assay can be described thus: In vitro tumor cell proliferation inhibition (MTT): HELA. Format: cell-based. The following applies: 72 hours. An outline of the steps:
as §4

The mark [7] stands for this setting: Homo sapiens, HCT-116, 72 hours.
Where [8] appears, read: 72 hours, read-out: Proliferation inhibition activity (IC50) HCT 116.

Chain of c-KIT (P10721 26-976): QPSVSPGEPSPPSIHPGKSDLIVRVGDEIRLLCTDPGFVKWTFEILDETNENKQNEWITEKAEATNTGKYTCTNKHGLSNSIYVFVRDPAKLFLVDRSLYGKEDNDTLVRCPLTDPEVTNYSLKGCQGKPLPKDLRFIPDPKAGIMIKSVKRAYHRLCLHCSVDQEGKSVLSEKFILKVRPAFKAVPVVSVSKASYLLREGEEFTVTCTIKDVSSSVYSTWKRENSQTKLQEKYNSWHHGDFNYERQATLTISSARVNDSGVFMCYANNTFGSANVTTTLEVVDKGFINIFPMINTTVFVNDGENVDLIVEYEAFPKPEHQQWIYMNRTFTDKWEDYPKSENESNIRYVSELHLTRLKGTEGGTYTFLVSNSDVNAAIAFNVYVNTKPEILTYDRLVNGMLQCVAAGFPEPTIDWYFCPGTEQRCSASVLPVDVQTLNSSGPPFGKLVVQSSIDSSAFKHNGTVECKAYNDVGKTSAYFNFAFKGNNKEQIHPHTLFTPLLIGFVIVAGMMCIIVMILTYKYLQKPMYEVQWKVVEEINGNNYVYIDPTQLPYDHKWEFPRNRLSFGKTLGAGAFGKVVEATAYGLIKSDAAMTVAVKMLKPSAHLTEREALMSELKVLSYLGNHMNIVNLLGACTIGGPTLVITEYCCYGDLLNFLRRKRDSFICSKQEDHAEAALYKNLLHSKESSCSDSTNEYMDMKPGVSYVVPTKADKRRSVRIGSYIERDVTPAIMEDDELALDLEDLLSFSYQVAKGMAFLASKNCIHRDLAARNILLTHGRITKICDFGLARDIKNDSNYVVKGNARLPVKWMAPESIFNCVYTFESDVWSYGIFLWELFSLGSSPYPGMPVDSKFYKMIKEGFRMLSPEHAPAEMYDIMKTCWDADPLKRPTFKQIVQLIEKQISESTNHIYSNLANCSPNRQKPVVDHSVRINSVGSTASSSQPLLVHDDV
Chain of FGFR2 (P21802 22-821): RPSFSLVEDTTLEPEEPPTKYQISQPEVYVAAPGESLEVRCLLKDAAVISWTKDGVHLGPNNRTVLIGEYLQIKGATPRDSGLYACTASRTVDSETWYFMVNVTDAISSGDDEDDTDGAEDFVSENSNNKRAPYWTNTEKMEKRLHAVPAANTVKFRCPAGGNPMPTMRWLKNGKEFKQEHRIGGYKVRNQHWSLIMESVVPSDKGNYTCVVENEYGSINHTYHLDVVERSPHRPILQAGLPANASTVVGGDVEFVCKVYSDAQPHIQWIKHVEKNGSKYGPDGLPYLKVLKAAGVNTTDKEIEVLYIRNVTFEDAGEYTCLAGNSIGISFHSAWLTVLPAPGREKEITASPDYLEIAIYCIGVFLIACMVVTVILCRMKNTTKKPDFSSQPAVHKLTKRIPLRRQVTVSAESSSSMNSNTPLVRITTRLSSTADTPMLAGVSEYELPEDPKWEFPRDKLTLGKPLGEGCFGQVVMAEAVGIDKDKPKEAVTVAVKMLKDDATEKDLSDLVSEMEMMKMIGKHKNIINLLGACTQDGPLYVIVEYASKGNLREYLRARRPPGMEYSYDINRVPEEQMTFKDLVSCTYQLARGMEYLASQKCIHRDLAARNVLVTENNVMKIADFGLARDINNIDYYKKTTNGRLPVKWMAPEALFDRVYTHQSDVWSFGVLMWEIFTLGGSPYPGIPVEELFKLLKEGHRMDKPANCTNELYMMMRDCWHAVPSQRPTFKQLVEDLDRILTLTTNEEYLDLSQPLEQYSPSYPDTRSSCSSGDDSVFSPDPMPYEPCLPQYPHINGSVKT

With `O=C(Nc1cccc(Nc2ncnc3[nH]ncc23)c1)Nc1ccc(F)c(Cl)c1` [4b-1], the inhibition at 10 µM in assay [1] is over 30%; in assay [3] it was 22%. Besides, the IC50 in assay [2] (Homo sapiens, A-375, 72 hours) is under 50 µM; in assay [4] (setting [7]) it was under 50 µM; in assay [5] (Homo sapiens, A875, 72 hours), under 50 µM; in assay [6] (Homo sapiens, HeLa), under 50 µM.
In the case of `C[C@@H](NC(=O)Nc1ccc(Nc2ncnc3[nH]ncc23)cc1)c1ccccc1` [4b-2, (R)-1-(4-(1H-pyrazolopyrimidine-4-amido)phenyl)-3-(1-phenethyl)urea], the inhibition at 10 µM in assay [1] is over 30%. The IC50 is under 50 µM in assay [2] (Homo sapiens, A-375, 72 hours); under 50 µM in assay [4] (setting [7]); under 50 µM in assay [5] (Homo sapiens, A875, 72 hours); under 50 µM in assay [6] (Homo sapiens, HeLa). The “Activity inhibition rate FGFR2 (h)” value in assay [3] (10 µM) came to 66%.
As to `COc1cccc(NC(=O)Nc2ccc(Nc3ncnc4[nH]ncc34)cc2)c1` [4b-3], the figures for the inhibition at 10 µM in assay [1] and in assay [3] were over 30% and 45%, respectively. Moreover, the IC50 is under 50 µM in assay [2] (Homo sapiens, A-375, 72 hours); under 50 µM in assay [4] (setting [7]); under 50 µM in assay [5] (Homo sapiens, A875, 72 hours); under 50 µM in assay [6] (Homo sapiens, HeLa).
For the compound `C[C@H](NC(=O)Nc1ccc(Nc2ncnc3[nH]ncc23)cc1)c1ccccc1` [4b-4], in assay [1], the “Activity inhibition rate c-Kit (h)” value was over 30%. In addition, the IC50 in assay [2] (72 hours), in assay [4] (setting [8]), in assay [5] (72 hours) and in assay [6] was under 50 µM throughout. Moreover, the “Activity inhibition rate FGFR2 (h)” value in assay [3] (10 µM) is given as 32%.
In the case of `CC(C)(C)c1cc(NC(=O)Nc2ccc(Sc3ncnc4[nH]ncc34)cc2)no1` [4c-3, 1-(4-(1H-pyrazolopyrimidine-4-sulfydryl)phenyl)-3-(5-tert-butylisoxazol-3-yl)urea], the “Activity inhibition rate c-Kit (h)” value in assay [1] is reported as over 90%. For the same compound, the IC50 in assay [2] (72 hours), in assay [4] (setting [8]), in assay [5] (72 hours) and in assay [6] was under 50 µM in each case. For the same compound, the “Activity inhibition rate FGFR2 (h)” value in assay [3] is given as over 50%.
